Measurements published in patent EP2987533B1, “7-substituted piperazin-1-yl fluoroquinolone compounds, their use in the treatment of cancer, pharmaceutical compositions and a method for preparation” (priority 2014, dated 2016).

Key:
Test in all cases: NCI one-dose SRB growth assay
Assay type in all cases: cell-based
A549/ATCC = conditions: Homo sapiens; A549/ATCC (Non-Small Cell Lung Cancer), 10^-5 M, 48 h; read-out: % Growth Inhibition (GI %)
Procedure: (§1) A primary anticancer assay was performed for an approximately 60 human tumor cell line panel derived from nine neoplastic diseases, in accordance with the protocol of the Drug Evaluation Branch, National Cancer Institute, Bethesda, MD (Monks A. et al., J. Natl. Cancer Inst 1991, 83, 757-766; Boyd M.R. and Paull K.D., Drug. Dev. Res. 1995, 34, 91-109; Shoemaker R.H., Nat. Rev. Cancer 2006, 6, 813-823). Briefly, tested compounds were added to the culture at a single concentration (10^-5M), and the cultures were incubated for 48 h. End point determinations were made with a protein binding dye, sulforhodamine B (SRB). The results for each tested compound were reported as the growth percentage of the treated cells when compared to that of the untreated control cells. The percentage growth was evaluated spectrophotometrically versus controls not treated with test agents.

BT-549 = conditions: Homo sapiens; BT-549 (Breast Cancer), 10^-5 M, 48 h; read-out: % Growth Inhibition (GI %)
Procedure: as §1

CAKI-1 = conditions: Homo sapiens; CAKI-1 (Renal Cancer), 10^-5 M, 48 h; read-out: % Growth Inhibition (GI %)
Procedure: as §1

COLO 205 = conditions: Homo sapiens; COLO 205 (Colon Cancer), 10^-5 M, 48 h; read-out: % Growth Inhibition (GI %)
Procedure: as §1

HCC-2998 = conditions: Homo sapiens; HCC-2998 (Colon Cancer), 10^-5 M, 48 h; read-out: % Growth Inhibition (GI %)
Procedure: as §1

HCT-15 = conditions: Homo sapiens; HCT-15 (Colon Cancer), 10^-5 M, 48 h; read-out: % Growth Inhibition (GI %)
Procedure: as §1

HL-60(TB) = conditions: Homo sapiens; HL-60(TB) (Leukemia), 10^-5 M, 48 h; read-out: % Growth Inhibition (GI %)
Procedure: as §1

HOP-92 = conditions: Homo sapiens; HOP-92 (Non-Small Cell Lung Cancer), 10^-5 M, 48 h; read-out: % Growth Inhibition (GI %)
Procedure: as §1

HT29 = conditions: Homo sapiens, HT-29; HT29 (Colon Cancer), 10^-5 M, 48 h; read-out: % Growth Inhibition (GI %)
Procedure: as §1

IGROV1 = conditions: Homo sapiens, IGROV-1; IGROV1 (Ovarian Cancer), 10^-5 M, 48 h; read-out: % Growth Inhibition (GI %)
Procedure: as §1

KM12 = conditions: Homo sapiens; KM12 (Colon Cancer), 10^-5 M, 48 h; read-out: % Growth Inhibition (GI %)
Procedure: as §1

LOX IMVI = conditions: Homo sapiens; LOX IMVI (Melanoma), 10^-5 M, 48 h; read-out: % Growth Inhibition (GI %)
Procedure: as §1

M14 = conditions: Homo sapiens; M14 (Melanoma), 10^-5 M, 48 h; read-out: % Growth Inhibition (GI %)
Procedure: as §1

MALME-3M = conditions: Homo sapiens; MALME-3M (Melanoma), 10^-5 M, 48 h; read-out: % Growth Inhibition (GI %)
Procedure: as §1

MCF7 = conditions: Homo sapiens; MCF7 (Breast Cancer), 10^-5 M, 48 h; read-out: % Growth Inhibition (GI %)
Procedure: as §1

MDA-MB-231/ATCC = conditions: Homo sapiens; MDA-MB- 231/ATCC (Breast Cancer), 10^-5 M, 48 h; read-out: % Growth Inhibition (GI %)
Procedure: as §1

MDA-MB-435 = conditions: Homo sapiens; MDA-MB-435 (Melanoma), 10^-5 M, 48 h; read-out: % Growth Inhibition (GI %)
Procedure: as §1

NCI-H226 = conditions: Homo sapiens; NCI-H226 (Non-Small Cell Lung Cancer), 10^-5 M, 48 h; read-out: % Growth Inhibition (GI %)
Procedure: as §1

NCI-H23 = conditions: Homo sapiens; NCI-H23 (Non-Small Cell Lung Cancer), 10^-5 M, 48 h; read-out: % Growth Inhibition (GI %)
Procedure: as §1

NCI-H322M = conditions: Homo sapiens; NCI-H322M (Non-Small Cell Lung Cancer), 10^-5 M, 48 h; read-out: % Growth Inhibition (GI %)
Procedure: as §1

OVCAR-3 = conditions: Homo sapiens; OVCAR-3 (Ovarian Cancer), 10^-5 M, 48 h; read-out: % Growth Inhibition (GI %)
Procedure: as §1

SF-539 = conditions: Homo sapiens; SF-539 (CNS Cancer), 10^-5 M, 48 h; read-out: % Growth Inhibition (GI %)
Procedure: as §1

T-47D = conditions: Homo sapiens, T47D; T-47D (Breast Cancer), 10^-5 M, 48 h; read-out: % Growth Inhibition (GI %)
Procedure: as §1

U251 = conditions: Homo sapiens, U-251; U251 (CNS Cancer), 10^-5 M, 48 h; read-out: % Growth Inhibition (GI %)
Procedure: as §1

UACC-257 = conditions: Homo sapiens; UACC-257 (Melanoma), 10^-5 M, 48 h; read-out: % Growth Inhibition (GI %)
Procedure: as §1

UACC-62 = conditions: Homo sapiens; UACC-62 (Melanoma), 10^-5 M, 48 h; read-out: % Growth Inhibition (GI %)
Procedure: as §1

SMILES	inhibition at 10 µM (A549/ATCC) [%]	inhibition at 10 µM (BT-549) [%]	inhibition at 10 µM (CAKI-1) [%]	inhibition at 10 µM (COLO 205) [%]	inhibition at 10 µM (HCC-2998) [%]	inhibition at 10 µM (HCT-15) [%]	inhibition at 10 µM (HL-60(TB)) [%]	inhibition at 10 µM (HOP-92) [%]	inhibition at 10 µM (HT29) [%]	inhibition at 10 µM (IGROV1) [%]	inhibition at 10 µM (KM12) [%]	inhibition at 10 µM (LOX IMVI) [%]	inhibition at 10 µM (MALME-3M) [%]	inhibition at 10 µM (MCF7) [%]	inhibition at 10 µM (MDA-MB-231/ATCC) [%]	inhibition at 10 µM (MDA-MB-435) [%]	inhibition at 10 µM (NCI-H226) [%]	inhibition at 10 µM (NCI-H23) [%]	inhibition at 10 µM (NCI-H322M) [%]	inhibition at 10 µM (OVCAR-3) [%]	further results
O=C(O)c1cn(C2CC2)c2cc(N3CCN(S(=O)(=O)c4ccc(Cl)c(Cl)c4)CC3)c(F)cc2c1=O [Compound 3b]	94	> 100	96.9	> 100	75.2	93.8	> 100	87.8	99.7	70.7	85.4	98.8	> 100	86.5	63.4	87	58.6	98.2	78.7	90.1	inhibition at 10 µM (M14): 81.5%; inhibition at 10 µM (SF-539): 88.6%; inhibition at 10 µM (T-47D): 83.7%; inhibition at 10 µM (U251): 87.6%; inhibition at 10 µM (UACC-257): 91.1%; inhibition at 10 µM (UACC-62): 70.4%
CCn1cc(C(=O)O)c(=O)c2cc(F)c(N3CCN(S(=O)(=O)c4cccc5ccccc45)CC3)cc21 [Compound 7a]	96.2	> 100	99.1	> 100	68.4	88.9	> 100	> 100	96	86.3	88.3	> 100	> 100	85.4	76.1	88.6	78.1	99.9	> 100	> 100	inhibition at 10 µM (M14): 82.1%; inhibition at 10 µM (SF-539): 82.6%; inhibition at 10 µM (T-47D): 94.7%; inhibition at 10 µM (U251): 85.8%; inhibition at 10 µM (UACC-257): 86%; inhibition at 10 µM (UACC-62): 68.8%
CCn1cc(C(=O)O)c(=O)c2cc(F)c(N3CCN(S(=O)(=O)c4ccc(Cl)cc4)CC3)cc21 [Compound 1a]	84.4	87.4	56.4	87.9	75.5	84.3	91	> 100	92.1	90.6	95.7	80.1	76.2	85.7	58.9	74.9	39.9	> 100	54.1	71.8	inhibition at 10 µM (M14): 81.1%; inhibition at 10 µM (SF-539): 78.3%; inhibition at 10 µM (T-47D): 58.9%; inhibition at 10 µM (U251): 88%; inhibition at 10 µM (UACC-257): 71%; inhibition at 10 µM (UACC-62): 78.5%
O=c1[nH]cc(F)c(=O)[nH]1 [Compound 5-FU, 5-fluorouracil, reference compound]	34.2	37.8	39.4	40.2	> 100	26.5	47.9	50.6	27.1	51.2	40.7	30.4	58.2	11.5	78.1	36.6	69.5	39	59.5	47.4	inhibition at 10 µM (SF-539): > 100%; inhibition at 10 µM (T-47D): 56.7%; inhibition at 10 µM (U251): 50.3%; inhibition at 10 µM (UACC-257): 19.5%; inhibition at 10 µM (UACC-62): 39.7%
